{"source": "ChEMBL document CHEMBL4145497", "about": "“Discovery of 2-aminothiazolyl berberine derivatives as effectively antibacterial agents toward clinically drug-resistant Gram-negative Acinetobacter baumanii” (Eur J Med Chem, 2018)", "format_in_all_cases": "functional", "key": {"Cyberlindnera jadinii": {"test_system": "Cyberlindnera jadinii", "assay": "Antifungal activity against Candida utilis ATCC 9950 by CLSI two fold serial dilution method", "settings": "Williopsis jadinii"}, "Klebsiella pneumoniae": {"test_system": "Klebsiella pneumoniae", "assay": "Antibacterial activity against drug-resistant Klebsiella pneumoniae after 18 to 24 hrs by CLSI two fold serial dilution method"}, "Micrococcus luteus": {"test_system": "Micrococcus luteus", "assay": "Antibacterial activity against Micrococcus luteus ATCC 4698 after 18 to 24 hrs by CLSI two fold serial dilution method"}, "Candida albicans [1]": {"test_system": "Candida albicans", "assay": "Antifungal activity against drug-resistant Candida albicans by CLSI two fold serial dilution method"}, "Escherichia coli [2]": {"test_system": "Escherichia coli", "assay": "Potency index, ratio of norfloxacin MIC to compound MIC for antibacterial activity against Escherichia coli DH52"}, "Enterococcus faecalis": {"test_system": "Enterococcus faecalis", "assay": "Antibacterial activity against drug-resistant Enterococcus faecalis after 18 to 24 hrs by CLSI two fold serial dilution method"}, "Staphylococcus aureus [3]": {"test_system": "Staphylococcus aureus", "assay": "Antibacterial activity against Staphylococcus aureus ATCC 25923 after 18 to 24 hrs by CLSI two fold serial dilution method"}, "Aspergillus flavus": {"test_system": "Aspergillus flavus", "assay": "Antifungal activity against Aspergillus flavus ATCC 204304 by CLSI two fold serial dilution method"}, "Saccharomyces cerevisiae": {"test_system": "Saccharomyces cerevisiae", "assay": "Antifungal activity against Saccharomyces cerevisiae ATCC 9763 by CLSI two fold serial dilution method"}, "Aspergillus fumigatus": {"test_system": "Aspergillus fumigatus", "assay": "Antifungal activity against drug-resistant Aspergillus fumigatus by CLSI two fold serial dilution method"}, "Candida tropicalis": {"test_system": "Candida tropicalis", "assay": "Antifungal activity against drug-resistant Candida tropicalis by CLSI two fold serial dilution method"}, "Pseudomonas aeruginosa [4]": {"test_system": "Pseudomonas aeruginosa", "assay": "Antibacterial activity against Pseudomonas aeruginosa ATCC 27853 after 18 to 24 hrs by CLSI two fold serial dilution method"}, "Acinetobacter baumannii": {"test_system": "Acinetobacter baumannii", "assay": "Antibacterial activity against drug-resistant Acinetobacter baumannii after 18 to 24 hrs by CLSI two fold serial dilution method"}, "Escherichia coli [5]": {"test_system": "Escherichia coli", "assay": "Antibacterial activity against Escherichia coli DH52 after 18 to 24 hrs by CLSI two fold serial dilution method"}, "Candida albicans [6]": {"test_system": "Candida albicans", "assay": "Antifungal activity against Candida albicans ATCC 76615 by CLSI two fold serial dilution method"}, "Bacillus subtilis": {"test_system": "Bacillus subtilis", "assay": "Antibacterial activity against Bacillus subtilis ATCC 21216 after 18 to 24 hrs by CLSI two fold serial dilution method"}, "Escherichia coli [7]": {"test_system": "Escherichia coli", "assay": "Antibacterial activity against drug-resistant Escherichia coli after 18 to 24 hrs by CLSI two fold serial dilution method"}, "Pichia norvegensis": {"test_system": "Pichia norvegensis", "assay": "Antifungal activity against Candida mycoderma ATCC 96918 by CLSI two fold serial dilution method"}, "Staphylococcus aureus [8]": {"test_system": "Staphylococcus aureus", "assay": "Antibacterial activity against methicillin-resistant Staphylococcus aureus N315 after 18 to 24 hrs by CLSI two fold serial dilution method"}, "Candida parapsilosis": {"test_system": "Candida parapsilosis", "assay": "Antifungal activity against Candida parapsilosis ATCC 22019 by CLSI two fold serial dilution method", "settings": "Lodderomyces parapsilosis"}, "Pseudomonas aeruginosa [9]": {"test_system": "Pseudomonas aeruginosa", "assay": "Antibacterial activity against drug-resistant Pseudomonas aeruginosa after 18 to 24 hrs by CLSI two fold serial dilution method"}}}
{"compound": "CCCCCCCCCCOc1c(OC)cc(/C=N/NC(N)=S)c2c1CN1CCc3cc4c(cc3C1C2)OCO4", "note": "(stereo unspecified)", "values": [{"measurement": "MIC", "setting": "Cyberlindnera jadinii", "result": 450, "unit": "µM"}, {"measurement": "MIC", "setting": "Klebsiella pneumoniae", "result": 230, "unit": "µM"}, {"measurement": "MIC", "setting": "Micrococcus luteus", "result": 230, "unit": "µM"}, {"measurement": "MIC", "setting": "Candida albicans [1]", "result": 60, "unit": "µM"}, {"measurement": "Ratio", "setting": "Escherichia coli [2]", "result": 53}, {"measurement": "MIC", "setting": "Enterococcus faecalis", "result": 30, "unit": "µM"}, {"measurement": "MIC", "setting": "Staphylococcus aureus [3]", "result": 30, "unit": "µM"}, {"measurement": "MIC", "setting": "Aspergillus flavus", "result": 450, "unit": "µM"}, {"measurement": "MIC", "setting": "Saccharomyces cerevisiae", "result": 230, "unit": "µM"}, {"measurement": "MIC", "setting": "Aspergillus fumigatus", "result": 7, "unit": "µM"}, {"measurement": "MIC", "setting": "Candida tropicalis", "result": 30, "unit": "µM"}, {"measurement": "MIC", "setting": "Pseudomonas aeruginosa [4]", "result": 230, "unit": "µM"}, {"measurement": "MIC", "setting": "Acinetobacter baumannii", "result": 10, "unit": "µM"}, {"measurement": "MIC", "setting": "Escherichia coli [5]", "result": 30, "unit": "µM"}, {"measurement": "MIC", "setting": "Candida albicans [6]", "result": 60, "unit": "µM"}, {"measurement": "MIC", "setting": "Bacillus subtilis", "result": 230, "unit": "µM"}, {"measurement": "MIC", "setting": "Escherichia coli [7]", "result": 30, "unit": "µM"}, {"measurement": "MIC", "setting": "Pichia norvegensis", "result": 230, "unit": "µM"}, {"measurement": "MIC", "setting": "Staphylococcus aureus [8]", "result": 30, "unit": "µM"}, {"measurement": "MIC", "setting": "Candida parapsilosis", "result": 110, "unit": "µM"}, {"measurement": "MIC", "setting": "Pseudomonas aeruginosa [9]", "result": 230, "unit": "µM"}]}
